Compared with `ON=C(O)c1ccccc1O`, `CCOC(=O)c1ccccc1O` is lower in melting point: 177 to 185 °C for the first, 2 to 3 °C for the second.

Compared with `Cn1c(=O)c2c(ncn2CC2OCCO2)n(C)c1=O`, `C=CCn1c(N)cc(=O)n(CC)c1=O` is lower in melting point: 144 °C for the first, 143 °C for the second.

First: [O-][P+](c1ccccc1)(c1ccccc1)C1C2=C(OC3=C1CCc1ccccc13)c1ccccc1CC2
Second: [O-][P+](O)(O)CCN(CP(c1ccccc1)c1ccccc1)CP(c1ccccc1)c1ccccc1
The melting point of the first is higher: 215 °C for the first, 147 °C for the second.

First: CC(C)(C)c1cc(C(C)(C)C)c(O)c(C(C)(C)C)c1
Second: Cc1cc(C)c(C(=O)O)cc1C
The melting point of the first is lower: 131 °C for the first, 152 °C for the second.

Compared with `CCOC(=O)C(C=Cc1cccc(C=CC(C(=O)OCC)C(=O)OCC)c1)C(=O)OCC`, `CC[C@H](C)[C@H](NC(=O)OCc1ccccc1)C(=O)O` is lower in melting point: 100 to 102 °C for the first, 52 to 54 °C for the second.

First: O=C(O)c1ccc2nccn2c1
Second: CC(Oc1ccc(O)cc1)C(=O)O (configuration not stated)
The melting point of the first is higher: 250 °C for the first, 143 to 147 °C for the second.

Going from `O=C(CC(=O)C(F)(F)F)c1ccc2ccccc2c1` to `CNc1cccc2ccccc12`, the melting point rises from 74 °C to 174 °C.

Compared with `CC(C)C1CC(=O)CC(=O)C1`, `CC(CO)c1c(O)c(O)c2c(c1O)C(=O)C(=O)C1C(C)(C)CCCC21C` (configuration not stated) is higher in melting point: 80 °C for the first, 239 °C for the second.

Compared with `CCCCCCCCCCCCCCCCCCCC(=O)OC`, `CCCCCCCCCCCCCCCCCC(N)=O` is higher in melting point: 54.5 °C for the first, 109 °C for the second.

Going from `O=C(O)CCCCC=C(c1ccccc1)c1cccnc1` to `Cc1sc(-c2cccnc2)nc1-c1ccccc1`, the melting point falls from 114 °C to 80 °C.

Compared with `CC(=O)OC1CCC2(C)C3CCC4(C)C(C(C)CCCC(C)C)CCC4C3CC(OC(C)=O)C2(O)C1` (configuration not stated), `CC(C)CCCC(C)C1CCC2(C)C1(C)CCC13OC21CCC1C(C)C(O)CCC13C` (configuration not stated) is lower in melting point: 164 °C for the first, 161 to 163 °C for the second.

Compared with `CC(C)(C)C(=O)C(Oc1ccc(Cl)cc1)n1cncn1` (configuration not stated), `Cc1n[nH]c(C)c1Oc1ccc(Cl)cc1` is higher in melting point: 82.3 °C for the first, 139 to 141 °C for the second.

Compared with `CC(Nc1cc(C)ccn1)=C(C#N)C(=O)c1ccccc1`, `CSC(=CC(=C(C#N)C#N)c1ccccc1)SC` is higher in melting point: 102 to 103 °C for the first, 117 to 121 °C for the second.

First: c1ccc(COc2ccc3ccccc3c2)cc1
Second: O=Cc1cccc(OCc2ccccc2)c1
The melting point of the first is higher: 97 °C for the first, 56 °C for the second.

Compared with `CCCCOc1ccc(CO)cc1`, `O=C(O)CCc1ccc(Cl)cc1` is higher in melting point: 29 to 32 °C for the first, 119 °C for the second.

Compared with `O=Cc1ccc(-c2ccco2)s1`, `CS(=O)(=O)c1ccc(C=O)cc1` is higher in melting point: 40 to 41 °C for the first, 155 to 161 °C for the second.

First: C[C@@]12CCC[C@@H]1C1=C(CC2)[C@@]2(C)CCC(=O)CC2CC1 (some centres not stated)
Second: CC12CCCC1C1CCC3CC(OCc4ccccc4)CCC3(C)C1CC2 (configuration not stated)
The melting point of the first is lower: 77 to 78 °C for the first, 148 °C for the second.

First: O=C(O)C1(c2ccccc2)CC1
Second: Cc1ccc(C2(C(=O)O)CCCCC2)cc1
The melting point of the first is lower: 87 °C for the first, 166 to 170 °C for the second.

First: Cc1nn(C(=O)OC(C)(C)C)c(C)c1I
Second: CCOC(=O)c1sc(Br)nc1C
The melting point of the first is lower: 56 to 58 °C for the first, 65 to 66 °C for the second.

Going from `COc1ccc(CCNCC(O)COc2cccc(C)c2)cc1OC` (configuration not stated) to `CCc1cc2cc(OC)c(OC)cc2c(Cc2ccccc2)n1`, the melting point falls from 138 °C to 78 °C.

First: OCC(O)CN1CCN(c2ccccc2)CC1 (configuration not stated)
Second: CC(C)=NN(c1ccccc1)P(=O)(N1CC1)N1CC1
The melting point of the first is lower: 105 °C for the first, 120 °C for the second.

Compared with `CC(=O)c1c(-c2ccc(Cl)cc2)noc1C`, `Cc1ccc(C(=O)CC#N)cc1` is higher in melting point: 56 to 59 °C for the first, 102 °C for the second.

Going from `COc1c2ccoc2cc2oc(COC3OC(CO)C(O)C(O)C3O)cc(=O)c12` (configuration not stated) to `CCCCCCCCCCCCOC1OC(CO)C(OC2OC(CO)C(O)C(O)C2O)C(O)C1O` (configuration not stated), the melting point rises from 179 °C to 217 °C.

Going from `NNC(=S)NCCN1CCOCC1` to `N#CCC(=O)N1CCCC1`, the melting point falls from 166 °C to 72.5 °C.

Going from `O=C(c1ccc(Cl)cc1)c1noc(-c2ccc3ccccc3c2)c1S(=O)(=O)c1ccccc1` to `C1=CCC(c2ccccc2)(c2ccccc2)C=C1`, the melting point falls from 135 °C to 57 °C.

Compared with `O=C(CCl)Nc1ccc(F)c(Cl)c1`, `Clc1ccc(Cl)c(Cl)c1` is lower in melting point: 96 to 98 °C for the first, 17 °C for the second.

First: O=[N+]([O-])c1cc(Cl)ccc1F
Second: O=[N+]([O-])c1cc(Cl)cc(Cl)c1O
The melting point of the first is lower: 8.3 °C for the first, 122 °C for the second.

Compared with `COC(=O)c1ccc(Br)o1`, `CCc1ccc(O)c(OC)c1` is lower in melting point: 64 °C for the first, 15 °C for the second.

Compared with `O=C(O)C=Cc1ccc(N2CCCC2)c([N+](=O)[O-])c1`, `O=C(OCC(=O)N1CCCCC1)c1ccccc1` is lower in melting point: 243 to 245 °C for the first, 88 °C for the second.

First: CCC1CN2CCc3c([nH]c4cccc(OC)c34)C2CC1C(=COC)C(=O)OC (configuration not stated)
Second: CCCOc1ccc2[nH]c(NC(=O)OC)nc2c1
The melting point of the first is lower: 104 °C for the first, 230 °C for the second.

Compared with `Cc1ccnc2c1NC(=O)c1cccnc1N2C1CC1`, `CC1=NNC(=N)Nc2c1c(=O)n(-c1ccccc1)c1ccccc21` is lower in melting point: 265 °C for the first, 227 °C for the second.

Going from `Cc1nn(C)c(Cl)c1S(=O)(=O)Cl` to `O=C1Cc2cc(S(=O)(=O)Cl)ccc2N1`, the melting point rises from 35 °C to 160 °C.

First: CC(C)(C)NCC(O)c1ccccc1Cl (configuration not stated)
Second: ON=Cc1ccccc1Cl
The melting point of the first is higher: 89 °C for the first, 72 to 77 °C for the second.

Compared with `Cc1cc(Cl)ccc1N`, `Cc1ccc(Cl)nn1` is higher in melting point: 30.3 °C for the first, 57 °C for the second.

Compared with `O=Cc1cc(F)ccc1Br`, `N#Cc1ccc(O)cc1F` is higher in melting point: 54 °C for the first, 125 °C for the second.

Compared with `NC(=O)N(CCO)N=Cc1ccc([N+](=O)[O-])o1`, `O=C(CBr)c1ccccc1[N+](=O)[O-]` is lower in melting point: 214 °C for the first, 55 °C for the second.

First: CCCOc1ccc([N+](=O)[O-])cc1NC(C)=O
Second: CC(=O)Oc1ccc([N+](=O)[O-])cc1
The melting point of the first is higher: 102 °C for the first, 76 to 79 °C for the second.

Compared with `OCCOCCOCCOCCOCCOCCO`, `CCCCOCOCCCC` is lower in melting point: 6 °C for the first, -58.1 °C for the second.

Compared with `COc1ccc(O)c(C(=O)O)c1`, `O=C(O)c1c(O)ccc(F)c1F` is higher in melting point: 143 °C for the first, 183 °C for the second.

Going from `CCC(Br)=CBr` to `Br/C=C/Br`, the melting point rises from -49.5 °C to -6.5 °C.

Compared with `C#CC(O)CCC` (configuration not stated), `CCCC=NO` is higher in melting point: -80 °C for the first, -29.5 °C for the second.

First: O=C(Nc1ccc(F)cc1)c1cccc(Oc2cccc(C(F)(F)F)c2)n1
Second: N#Cc1c(C(F)(F)F)cc(-c2ccccc2)nc1S
The melting point of the first is lower: 107 °C for the first, 181 °C for the second.

Compared with `Brc1cc2ccc1CCc1ccc(c(Br)c1)CC2`, `O=C1OC(c2ccccc2)=N/C1=C\c1ccc(Br)o1` is lower in melting point: 251 °C for the first, 122 °C for the second.

Compared with `Cc1c(C)c(C)c(C(=O)O)c(C)c1C`, `CC(=O)c1cc(C)c(Br)cc1O` is lower in melting point: 210 °C for the first, 88 °C for the second.

Compared with `CCN1C(=O)C(=Cc2coc3ccc(Cl)cc3c2=O)SC1=S`, `CCCNc1cc(=O)oc2ccccc12` is lower in melting point: 231 to 233 °C for the first, 111 °C for the second.

Compared with `CC(=O)c1nc2ccccc2s1`, `CSc1nc(N)c(C(=O)c2ccc(Br)cc2)s1` is higher in melting point: 109 to 112 °C for the first, 163 to 165 °C for the second.

First: Oc1cc(F)cc(F)c1F
Second: N#Cc1ccc(F)c(C(F)(F)F)c1
The melting point of the first is lower: 29 °C for the first, 68 °C for the second.

First: Cc1ccc(C2C(C#N)=C(N)Oc3[nH]nc(C(F)(F)F)c32)cc1 (configuration not stated)
Second: N#CC1=C(N)Oc2[nH]nc(C(F)(F)F)c2C1c1ccc(O)cc1 (configuration not stated)
The melting point of the first is lower: 185 °C for the first, 197 °C for the second.

First: OCc1c(Br)c(Br)c(Br)c(Br)c1Br
Second: Cc1cc(O)cc(Br)c1
The melting point of the first is higher: 264 to 265 °C for the first, 56.5 °C for the second.

Going from `FC(F)(Cl)C(Cl)(Cl)C(F)(F)Cl` to `FC(F)(F)C1(F)C(F)(F)C(F)(F)C(F)(F)C(F)(F)C1(F)F`, the melting point rises from -42.9 °C to -37 °C.

Compared with `N#CCC(=O)c1ccco1`, `CCc1cccc(O)c1` is lower in melting point: 81 to 83 °C for the first, -4 °C for the second.

Compared with `OC1CCC(O)CC1` (configuration not stated), `ClC1OCCOC1Cl` (configuration not stated) is lower in melting point: 143 °C for the first, 30 °C for the second.

Going from `CC(=O)CCc1oc2c(I)cc(I)cc2c1-c1ccc(C)o1` to `Clc1cc2c(oc3c(Cl)c(Cl)c(Cl)cc32)c(Cl)c1Cl`, the melting point rises from 192 °C to 240 °C.

First: Brc1ccc(Cn2ccnc2)cc1
Second: OCCn1ccnc1
The melting point of the first is higher: 75 to 80 °C for the first, 39 °C for the second.

Compared with `O=C1CCN(C(=O)CCl)N1`, `CCOC(=O)NC(=O)CCl` is lower in melting point: 146 °C for the first, 127 to 131 °C for the second.

First: CC(C)(SC(=O)N1CCCCC1)c1ccccc1
Second: CCC(C(=O)OC)c1ccccc1 (configuration not stated)
The melting point of the first is lower: 39.1 °C for the first, 77.5 °C for the second.

First: N#Cc1ccc([N+](=O)[O-])cc1C#N
Second: Cc1cccc([N+](=O)[O-])c1C
The melting point of the first is higher: 140 to 144 °C for the first, 15 °C for the second.

Compared with `CC1=C(CCC(=O)O)c2cc3nc(cc4[nH]c(cc5[nH]c(cc1n2)c(C)c5C(C)O)c(C)c4C(C)O)C(C)=C3CCC(=O)O` (configuration not stated), `CC(CCc1ccccc1)NCC(O)c1ccc(O)c(C(N)=O)c1` (configuration not stated) is higher in melting point: 172 °C for the first, 190 °C for the second.

First: CN(C)c1ccc(/C=N/n2c(S)nnc2C(F)(F)F)cc1
Second: CN(C)c1ccc(N=C(C#N)c2ccc(C(C#N)=Nc3ccc(N(C)C)cc3)cc2)cc1
The melting point of the first is lower: 200 °C for the first, 240 °C for the second.

First: CCC(C(=O)O)c1ccc(N2Cc3ccccc3C2=O)cc1 (configuration not stated)
Second: CCN(CC)c1nc2ccccc2c(=O)n1-c1ccccc1
The melting point of the first is higher: 183 °C for the first, 109 °C for the second.

Going from `O=C(O)c1ccccc1SSc1ccccc1C(=O)O` to `N#Cc1c(N=[N+]([O-])c2cnn(-c3ccccc3)c2C#N)cnn1-c1ccccc1`, the melting point falls from 288 °C to 265 °C.

Going from `CCCCCCCCCCCCCCCCCCC1CCCCC1` to `CN(C)CCN(C)C`, the melting point falls from 41.6 °C to -55 °C.

First: N[C@@H](CCl)C(=O)O
Second: O=C(O)CCn1ccnc1
The melting point of the first is higher: 156 to 157 °C for the first, 147 to 149 °C for the second.

Going from `O=S1(=O)OCCO1` to `N#Cc1scc2c1OCCO2`, the melting point falls from 99 °C to 70 °C.

Compared with `Cc1nc(-c2cnccn2)sc1C(=O)O`, `O=C1OC(=O)c2c(F)cccc21` is lower in melting point: 237 to 238 °C for the first, 159 to 163 °C for the second.

Compared with `COc1c(Cl)ccc(Cl)c1Cl`, `Cc1ccccc1NN=C1C(=O)NC(=S)NC1=O` is higher in melting point: 45 °C for the first, 242 °C for the second.

Reference: a melting point compilation (Tetko et al.)
